Data as given in patent US4160829A, “Antibacterial 1,2,4-oxadiazolylacetamido cephalosporins” (Gist-Brocades N.V., priority 1972, dated 1979).

How the values were obtained:
[1] = test system: Staph.aureus A 321; experiment: agar serial dilution test; assay type: cell-based, Staphylococcus aureus; details: Staphylococcus aureus, A321, 24 h, agar serial dilution, 24 hours, 37° C.; read-out: minimal inhibitory concentration (MIC)
[2] = test system: Staph.aureus A 2000; experiment: agar serial dilution test; assay type: cell-based, Staphylococcus aureus; details: Staphylococcus aureus, A2000, 24 h, agar serial dilution, 24 hours, 37° C.; read-out: minimal inhibitory concentration (MIC)
[3] = test system: Salm.typh. R 172; experiment: agar serial dilution test; assay type: cell-based; details: 24 h, read-out: minimal inhibitory concentration (MIC)
[4] = test system: Prot.rettg. A 821; experiment: agar serial dilution test; assay type: cell-based, Proteus rettgeri; details: Providencia rettgeri, 24 h, agar serial dilution, 24 hours, 37° C.; read-out: minimal inhibitory concentration (MIC)
[5] = test system: Prot.mirab. A 1200; experiment: agar serial dilution test; assay type: cell-based, Proteus mirabilis; details: Proteus mirabilis, 24 h, agar serial dilution, 24 hours, 37° C.; read-out: minimal inhibitory concentration (MIC)
[6] = test system: Esch.coli U 20; experiment: agar serial dilution test; assay type: cell-based, Escherichia coli; details: Escherichia coli, U20; agar serial dilution, 24 hours, 37° C.; read-out: minimal inhibitory concentration (MIC)
[7] = test system: Prot.morg. 2241; experiment: agar serial dilution test; assay type: cell-based; details: 24 h, agar serial dilution, 24 hours, 37° C.; read-out: minimal inhibitory concentration (MIC)
[8] = test system: Klebsiella pneumoniae A 265; experiment: protection test; assay type: in vivo; details: i.p.
[9] = test system: Bac.Subt.ATCC 6633; experiment: agar serial dilution test; assay type: cell-based, Bacillus subtilis; details: Bacillus subtilis, ATCC6633, 24 h, agar serial dilution, 24 hours, 37° C.; read-out: minimal inhibitory concentration (MIC)
[10] = test system: Bruc. Suis A 2126; experiment: agar serial dilution test; assay type: cell-based; details: Brucella suis, 24 h, read-out: minimal inhibitory concentration (MIC)
[11] = test system: Proteus mirabilis A 1200; experiment: protection test; assay type: in vivo; details: s.c.
[12] = test system: Strep.haem A 1088; experiment: agar serial dilution test; assay type: cell-based, Streptococcus haemolyticus; details: Streptococcus, A1088, 24 hours, 37° C., read-out: minimal inhibitory concentration (MIC)
[13] = blood and urine contents after intramuscular administration in rabbits; assay type: in vivo, rabbits "Nieuw Zeelander"; details: rabbit, im, intramuscular 50 mg/kg
Method: (d) the blood and urine contents of the above-indicated compound G and of monosodium 7-[(3-carboxymethyl-1,2,4-oxadiazol-5-yl)acetamido]-3-acetoxymethyl-3-cephem-4-carboxylate (as prepared in example 35) were determined after intramuscular administration of these compounds in an aqueous solution in rabbits, as listed below:
test animals: rabbits "Nieuw Zeelander"
Each testgroup consisted of 3 rabbits.
Vehiculum: Physiol. saline solution
Bloodsamples were taken after 1/4--1/2--1--2--4 hours Urinesamples were taken after 1--3--6--24--27 hours (in practice only the secreted amounts after 6 and 24 hours were used).
Testorganisms: Bacillus subtilis ATCC 6633 and Bacillus callidolactis E 16.
The contents of the compounds in the samples were determined microbiologically.
(Only microbiologically detected concentrations, i.e. anti-bacterially active concentrations only have been indicated and determined in relation to the original administered compound).

[14] = test system: Strep. faec. L 80; experiment: agar serial dilution test; assay type: cell-based, Streptococcus faecalis; details: Enterococcus faecalis; agar serial dilution, 24 hours, 37° C.; read-out: minimal inhibitory concentration (MIC)
[15] = test system: Prot.mirab. L 93; experiment: agar serial dilution test; assay type: cell-based, Proteus mirabilis; details: Proteus mirabilis; agar serial dilution, 24 hours, 37° C.; read-out: minimal inhibitory concentration (MIC)
[16] = test system: Pseud.aerug. H 10; experiment: agar serial dilution test; assay type: cell-based; details: agar serial dilution, 24 hours, 37° C.; read-out: minimal inhibitory concentration (MIC)
[17] = test system: Staph.aureus A 355; experiment: agar serial dilution test; details: Staphylococcus aureus, A355, 24 h, read-out: minimal inhibitory concentration (MIC), agar serial dilution, 24 hours, 37° C.; penicillinase-producing strain
[18] = test system: Prot.mirab. H 3; experiment: agar serial dilution test; assay type: cell-based, Proteus mirabilis; details: Proteus mirabilis; agar serial dilution, 24 hours, 37° C.; read-out: minimal inhibitory concentration (MIC)
[19] = test system: Dipl.pneum. L 54; experiment: agar serial dilution test; assay type: cell-based, Diplococcus pneumoniae; details: Streptococcus pneumoniae; agar serial dilution, 24 hours, 37° C.; read-out: minimal inhibitory concentration (MIC)
[20] = test system: Sarc. lutea ATCC 9341; experiment: agar serial dilution test; assay type: cell-based; details: Micrococcus luteus, ATCC9341, 24 hours, 37° C., read-out: minimal inhibitory concentration (MIC)
[21] = test system: Staph.aureus A 2000; experiment: micro serial dilution test; assay type: cell-based, Staphylococcus aureus; details: Staphylococcus aureus, A2000, 18 h, micro serial dilution (in brackets), about 18 hours, 30° C. or 37° C.; read-out: minimal inhibitory concentration (MIC)
[22] = test system: Salm.dubl. P 43; experiment: agar serial dilution test; assay type: cell-based, Salmonella dublin; details: Salmonella enterica; agar serial dilution, 24 hours, 37° C.; read-out: minimal inhibitory concentration (MIC)
[23] = test system: Pseud.aerug. 2396; experiment: agar serial dilution test; assay type: cell-based; details: agar serial dilution, 24 hours, 37° C.; read-out: minimal inhibitory concentration (MIC)
[24] = test system: Staph.aureus A 2001; experiment: micro serial dilution test; assay type: cell-based, Staphylococcus aureus; details: Staphylococcus aureus, A2001, 18 h, micro serial dilution (in brackets), about 18 hours, 30° C. or 37° C.; read-out: minimal inhibitory concentration (MIC)
[25] = test system: Actinob.equ. T 3; experiment: agar serial dilution test; assay type: cell-based; details: 24 hours, 37° C., read-out: minimal inhibitory concentration (MIC)

With Cc1noc(CC(=O)N[C@@H]2C(=O)N3C(C(=O)O)=C(CSc4nnnn4C)CS[C@H]23)n1 [Compound G, sodium-7[(3-methyl-1,2,4-oxadiazol-5-yl)-acetamido] 3 [1-methyl-tetrazol-5-yl-mercaptomethyl] 3-cephem-4-carboxylate] the MIC [1] was 0.25 µg/mL, the MIC [2] was 0.75 µg/mL and the MIC [3] was 1.5 µg/mL. It also gave an MIC [4] of 0.25 µg/mL, an MIC [5] of 25 µg/mL and an MIC [6] of 0.75 µg/mL. The MIC [7] was 100 µg/mL, the ED50 ([8]; Klebsiella pneumoniae, A265, ip, protection test) was 86 mg/kg and the Potency ratio ([8]; reference Cefalotin) was 1,09. For the same molecule, the MIC [9] was 0.25 µg/mL, the MIC [10] was 1 µg/mL and the ED50 ([11]; Proteus mirabilis, A1200, sc, protection test, read-out: ED50) was 8.7 mg/kg. The Potency ratio ([11]; reference Cefalotin) was 1,4, the MIC [12] was 0.25 µg/mL and the concentration at 0.5 h ([13]; serum, after 1/2 hr, read-out: Serumlevel) was 137000 ng/mL. It also gave a concentration at 0.25 h ([13]; serum, after 1/4 hr, read-out: Serumlevel) of 157000 ng/mL, a concentration at 1 h ([13]; serum, after 1 hr, read-out: Serumlevel) of 49000 ng/mL and a concentration at 2 h ([13]; serum, after 2 hr, read-out: Serumlevel) of 25000 ng/mL. It also gave a concentration at 4 h ([13]; serum, after 4 hr, read-out: Serumlevel) of 6700 ng/mL, a dose excreted at 6 h ([13]; urine, after 6 hr, read-out: Secretion of compound in urine in % of the administered dose) of 51.3% and a dose excreted at 24 h ([13]; urine, after 24 hr, read-out: Secretion of compound in urine in % of the administered dose) of 55.5%. The MIC [14] was 50 µg/mL, the MIC [15] was 3 µg/mL and the MIC [16] was 100 µg/mL. The MIC [17] was 1 µg/mL, the MIC [18] was 25 µg/mL and the MIC [19] was 0.5 µg/mL. For the same molecule, the MIC [20] was 0.5 µg/mL, the MIC [21] was 0.6 µg/mL and the MIC [22] was 1.5 µg/mL. It also gave an MIC [23] of 100 µg/mL, an MIC [24] of 0.6 µg/mL and an MIC [25] of 0.5 µg/mL.
